Reference: ChEMBL document CHEMBL4680126, “Indazolyl-substituted piperidin-4-yl-aminopyrimidines as HIV-1 NNRTIs: Design, synthesis and biological activities” (Eur J Med Chem, 2020)

Tested on: Human immunodeficiency virus 1
Assay: Antiviral activity against wild type HIV-1 strain 3B infected in human MT4 cells assessed as reduction in virus-induced cytopathogenicity by MTT assay
Format: functional, organism-based
Conditions: Human immunodeficiency virus 1, 3B

Row | SMILES | EC50 [µM]
1 | Cc1cc(C#N)cc(C)c1Oc1ccnc(NC2CCN(Cc3n[nH]c4ccccc34)CC2)n1 | 0.0064
2 | N#Cc1cccc(Oc2ccnc(NC3CCN(Cc4n[nH]c5ccccc45)CC3)n2)c1 | 1.5
3 | Clc1ccccc1Oc1ccnc(NC2CCN(Cc3n[nH]c4ccccc34)CC2)n1 | 0.037
4 | Clc1cccc(Oc2ccnc(NC3CCN(Cc4n[nH]c5ccccc45)CC3)n2)c1 | 0.28
5 | Brc1ccc(Oc2ccnc(NC3CCN(Cc4n[nH]c5ccccc45)CC3)n2)cc1 | 0.21
6 | Cc1ccc(Oc2ccnc(NC3CCN(Cc4n[nH]c5ccccc45)CC3)n2)cc1 | 0.14
7 | Cc1cccc(Oc2ccnc(NC3CCN(Cc4n[nH]c5ccccc45)CC3)n2)c1 | 0.39
8 | N#Cc1cc(Cl)cc(Oc2ccnc(NC3CCN(Cc4n[nH]c5ccccc45)CC3)n2)c1 | 2.3
9 | FC(F)(F)c1ccccc1Oc1ccnc(NC2CCN(Cc3n[nH]c4ccccc34)CC2)n1 | 0.3
10 | Clc1ccc(Oc2ccnc(NC3CCN(Cc4n[nH]c5ccccc45)CC3)n2)cc1 | 0.23
11 | Cc1cccc(C)c1Oc1ccnc(NC2CCN(Cc3n[nH]c4ccccc34)CC2)n1 | 0.0086

Tested on: Human immunodeficiency virus 1
Assay: Antiviral activity against HIV-1 K103N mutant strain infected in human MT4 cells assessed as reduction in virus-induced cytopathogenicity by MTT assay
Format: functional, organism-based
Conditions: Human immunodeficiency virus 1, MT4

Row | SMILES | EC50 [µM]
12 | Cc1cc(C#N)cc(C)c1Oc1ccnc(NC2CCN(Cc3n[nH]c4ccccc34)CC2)n1 | 0.077
13 | N#Cc1cccc(Oc2ccnc(NC3CCN(Cc4n[nH]c5ccccc45)CC3)n2)c1 | > 32
14 | Clc1ccccc1Oc1ccnc(NC2CCN(Cc3n[nH]c4ccccc34)CC2)n1 | > 5.4
15 | Clc1cccc(Oc2ccnc(NC3CCN(Cc4n[nH]c5ccccc45)CC3)n2)c1 | 9.8
16 | Brc1ccc(Oc2ccnc(NC3CCN(Cc4n[nH]c5ccccc45)CC3)n2)cc1 | 5.7
17 | Cc1ccc(Oc2ccnc(NC3CCN(Cc4n[nH]c5ccccc45)CC3)n2)cc1 | 3.8
18 | Cc1cccc(Oc2ccnc(NC3CCN(Cc4n[nH]c5ccccc45)CC3)n2)c1 | 9.6
19 | N#Cc1cc(Cl)cc(Oc2ccnc(NC3CCN(Cc4n[nH]c5ccccc45)CC3)n2)c1 | > 27
20 | FC(F)(F)c1ccccc1Oc1ccnc(NC2CCN(Cc3n[nH]c4ccccc34)CC2)n1 | 8.3
21 | Clc1ccc(Oc2ccnc(NC3CCN(Cc4n[nH]c5ccccc45)CC3)n2)cc1 | 4
22 | Cc1cccc(C)c1Oc1ccnc(NC2CCN(Cc3n[nH]c4ccccc34)CC2)n1 | 0.22

Tested on: Human immunodeficiency virus 1
Assay: Antiviral activity against HIV-1 Y181C mutant strain infected in human MT4 cells assessed as reduction in virus-induced cytopathogenicity by MTT assay
Format: functional, organism-based
Conditions: Human immunodeficiency virus 1, MT4

Row | SMILES | EC50 [µM]
23 | Cc1cc(C#N)cc(C)c1Oc1ccnc(NC2CCN(Cc3n[nH]c4ccccc34)CC2)n1 | 0.11
24 | N#Cc1cccc(Oc2ccnc(NC3CCN(Cc4n[nH]c5ccccc45)CC3)n2)c1 | > 32
25 | Clc1ccccc1Oc1ccnc(NC2CCN(Cc3n[nH]c4ccccc34)CC2)n1 | 1.6
26 | Clc1cccc(Oc2ccnc(NC3CCN(Cc4n[nH]c5ccccc45)CC3)n2)c1 | 9
27 | Brc1ccc(Oc2ccnc(NC3CCN(Cc4n[nH]c5ccccc45)CC3)n2)cc1 | 7.5
28 | Cc1ccc(Oc2ccnc(NC3CCN(Cc4n[nH]c5ccccc45)CC3)n2)cc1 | 4.3
29 | Cc1cccc(Oc2ccnc(NC3CCN(Cc4n[nH]c5ccccc45)CC3)n2)c1 | > 11
30 | N#Cc1cc(Cl)cc(Oc2ccnc(NC3CCN(Cc4n[nH]c5ccccc45)CC3)n2)c1 | > 27
31 | FC(F)(F)c1ccccc1Oc1ccnc(NC2CCN(Cc3n[nH]c4ccccc34)CC2)n1 | 6.8
32 | Clc1ccc(Oc2ccnc(NC3CCN(Cc4n[nH]c5ccccc45)CC3)n2)cc1 | 5.6
33 | Cc1cccc(C)c1Oc1ccnc(NC2CCN(Cc3n[nH]c4ccccc34)CC2)n1 | 0.4

Tested on: Human immunodeficiency virus 1
Assay: Antiviral activity against HIV-1 E138K mutant strain infected in human MT4 cells assessed as reduction in virus-induced cytopathogenicity by MTT assay
Format: functional, organism-based
Conditions: Human immunodeficiency virus 1, MT4

Row | SMILES | EC50 [µM]
34 | Cc1cc(C#N)cc(C)c1Oc1ccnc(NC2CCN(Cc3n[nH]c4ccccc34)CC2)n1 | 0.057
35 | N#Cc1cccc(Oc2ccnc(NC3CCN(Cc4n[nH]c5ccccc45)CC3)n2)c1 | > 32
36 | Clc1ccccc1Oc1ccnc(NC2CCN(Cc3n[nH]c4ccccc34)CC2)n1 | 0.8
37 | Clc1cccc(Oc2ccnc(NC3CCN(Cc4n[nH]c5ccccc45)CC3)n2)c1 | 4.7
38 | Brc1ccc(Oc2ccnc(NC3CCN(Cc4n[nH]c5ccccc45)CC3)n2)cc1 | 2
39 | Cc1ccc(Oc2ccnc(NC3CCN(Cc4n[nH]c5ccccc45)CC3)n2)cc1 | 0.77
40 | Cc1cccc(Oc2ccnc(NC3CCN(Cc4n[nH]c5ccccc45)CC3)n2)c1 | 4
41 | N#Cc1cc(Cl)cc(Oc2ccnc(NC3CCN(Cc4n[nH]c5ccccc45)CC3)n2)c1 | > 27
42 | FC(F)(F)c1ccccc1Oc1ccnc(NC2CCN(Cc3n[nH]c4ccccc34)CC2)n1 | 4.4
43 | Clc1ccc(Oc2ccnc(NC3CCN(Cc4n[nH]c5ccccc45)CC3)n2)cc1 | 2.3
44 | Cc1cccc(C)c1Oc1ccnc(NC2CCN(Cc3n[nH]c4ccccc34)CC2)n1 | 0.084

Tested on: Human immunodeficiency virus 1
Assay: Antiviral activity against HIV-1 RES056 mutant strain infected in human MT4 cells assessed as reduction in virus-induced cytopathogenicity by MTT assay
Format: functional, organism-based
Conditions: Human immunodeficiency virus 1, MT4

Row | SMILES | EC50 [µM]
45 | Cc1cc(C#N)cc(C)c1Oc1ccnc(NC2CCN(Cc3n[nH]c4ccccc34)CC2)n1 | 8.7
46 | N#Cc1cccc(Oc2ccnc(NC3CCN(Cc4n[nH]c5ccccc45)CC3)n2)c1 | > 32
47 | Clc1ccccc1Oc1ccnc(NC2CCN(Cc3n[nH]c4ccccc34)CC2)n1 | > 5.4
48 | Clc1cccc(Oc2ccnc(NC3CCN(Cc4n[nH]c5ccccc45)CC3)n2)c1 | > 26
49 | Brc1ccc(Oc2ccnc(NC3CCN(Cc4n[nH]c5ccccc45)CC3)n2)cc1 | > 24
50 | Cc1ccc(Oc2ccnc(NC3CCN(Cc4n[nH]c5ccccc45)CC3)n2)cc1 | > 32
51 | Cc1cccc(Oc2ccnc(NC3CCN(Cc4n[nH]c5ccccc45)CC3)n2)c1 | > 32
52 | N#Cc1cc(Cl)cc(Oc2ccnc(NC3CCN(Cc4n[nH]c5ccccc45)CC3)n2)c1 | > 27
53 | FC(F)(F)c1ccccc1Oc1ccnc(NC2CCN(Cc3n[nH]c4ccccc34)CC2)n1 | > 15
54 | Clc1ccc(Oc2ccnc(NC3CCN(Cc4n[nH]c5ccccc45)CC3)n2)cc1 | > 30
55 | Cc1cccc(C)c1Oc1ccnc(NC2CCN(Cc3n[nH]c4ccccc34)CC2)n1 | > 18

Tested on: not listed separately
Assay: Cytotoxicity against human MT4 cells assessed as inhibition of cell viability by measuring reduction in absorbance at OD540 by MTT assay
Format: cell-based
Conditions: not given

Row | SMILES | CC50 [µM]
56 | Cc1cc(C#N)cc(C)c1Oc1ccnc(NC2CCN(Cc3n[nH]c4ccccc34)CC2)n1 | 16
57 | N#Cc1cccc(Oc2ccnc(NC3CCN(Cc4n[nH]c5ccccc45)CC3)n2)c1 | 32
58 | Clc1ccccc1Oc1ccnc(NC2CCN(Cc3n[nH]c4ccccc34)CC2)n1 | 5.4
59 | Clc1cccc(Oc2ccnc(NC3CCN(Cc4n[nH]c5ccccc45)CC3)n2)c1 | 26
60 | Brc1ccc(Oc2ccnc(NC3CCN(Cc4n[nH]c5ccccc45)CC3)n2)cc1 | 24
61 | Cc1ccc(Oc2ccnc(NC3CCN(Cc4n[nH]c5ccccc45)CC3)n2)cc1 | 32
62 | Cc1cccc(Oc2ccnc(NC3CCN(Cc4n[nH]c5ccccc45)CC3)n2)c1 | 32
63 | N#Cc1cc(Cl)cc(Oc2ccnc(NC3CCN(Cc4n[nH]c5ccccc45)CC3)n2)c1 | 27
64 | FC(F)(F)c1ccccc1Oc1ccnc(NC2CCN(Cc3n[nH]c4ccccc34)CC2)n1 | 15
65 | Clc1ccc(Oc2ccnc(NC3CCN(Cc4n[nH]c5ccccc45)CC3)n2)cc1 | 30
66 | Cc1cccc(C)c1Oc1ccnc(NC2CCN(Cc3n[nH]c4ccccc34)CC2)n1 | 18

Tested on: not listed separately
Assay: Selectivity index, ratio of CC50 for cytotoxicity against human MT4 cells reduction in cell viability by MTT assay to EC50 for antiviral activity against wild type HIV-1 strain IIIB infected in human MT4 cells assessed as reduction in virus-induced cytopathogenicity by MTT assay
Format: toxicity, cell-based
Conditions: read-out: Selectivity Index

Row | SMILES | selectivity ratio
67 | Cc1cc(C#N)cc(C)c1Oc1ccnc(NC2CCN(Cc3n[nH]c4ccccc34)CC2)n1 | 2500
68 | N#Cc1cccc(Oc2ccnc(NC3CCN(Cc4n[nH]c5ccccc45)CC3)n2)c1 | 21
69 | Clc1ccccc1Oc1ccnc(NC2CCN(Cc3n[nH]c4ccccc34)CC2)n1 | 146
70 | Clc1cccc(Oc2ccnc(NC3CCN(Cc4n[nH]c5ccccc45)CC3)n2)c1 | 93
71 | Brc1ccc(Oc2ccnc(NC3CCN(Cc4n[nH]c5ccccc45)CC3)n2)cc1 | 114
72 | Cc1ccc(Oc2ccnc(NC3CCN(Cc4n[nH]c5ccccc45)CC3)n2)cc1 | 229
73 | Cc1cccc(Oc2ccnc(NC3CCN(Cc4n[nH]c5ccccc45)CC3)n2)c1 | 82
74 | N#Cc1cc(Cl)cc(Oc2ccnc(NC3CCN(Cc4n[nH]c5ccccc45)CC3)n2)c1 | 12
75 | FC(F)(F)c1ccccc1Oc1ccnc(NC2CCN(Cc3n[nH]c4ccccc34)CC2)n1 | 50
76 | Clc1ccc(Oc2ccnc(NC3CCN(Cc4n[nH]c5ccccc45)CC3)n2)cc1 | 130
77 | Cc1cccc(C)c1Oc1ccnc(NC2CCN(Cc3n[nH]c4ccccc34)CC2)n1 | 2090

Tested on: Human immunodeficiency virus 2
Assay: Antiviral activity against HIV-2 ROD strain infected in human MT4 cells assessed as reduction in virus-induced cytopathogenicity by MTT assay
Conditions: Human immunodeficiency virus 2, ISOLATE ROD

Row | SMILES | EC50 [µM]
78 | Cc1cc(C#N)cc(C)c1Oc1ccnc(NC2CCN(Cc3n[nH]c4ccccc34)CC2)n1 | > 16
79 | N#Cc1cccc(Oc2ccnc(NC3CCN(Cc4n[nH]c5ccccc45)CC3)n2)c1 | > 32
80 | Clc1ccccc1Oc1ccnc(NC2CCN(Cc3n[nH]c4ccccc34)CC2)n1 | > 5.4
81 | Clc1cccc(Oc2ccnc(NC3CCN(Cc4n[nH]c5ccccc45)CC3)n2)c1 | > 26
82 | Brc1ccc(Oc2ccnc(NC3CCN(Cc4n[nH]c5ccccc45)CC3)n2)cc1 | > 24
83 | Cc1ccc(Oc2ccnc(NC3CCN(Cc4n[nH]c5ccccc45)CC3)n2)cc1 | > 32
84 | Cc1cccc(Oc2ccnc(NC3CCN(Cc4n[nH]c5ccccc45)CC3)n2)c1 | > 32
85 | N#Cc1cc(Cl)cc(Oc2ccnc(NC3CCN(Cc4n[nH]c5ccccc45)CC3)n2)c1 | > 27
86 | FC(F)(F)c1ccccc1Oc1ccnc(NC2CCN(Cc3n[nH]c4ccccc34)CC2)n1 | > 15
87 | Clc1ccc(Oc2ccnc(NC3CCN(Cc4n[nH]c5ccccc45)CC3)n2)cc1 | > 30
88 | Cc1cccc(C)c1Oc1ccnc(NC2CCN(Cc3n[nH]c4ccccc34)CC2)n1 | > 18
